Where two headings read alike, the source gives them in different places.
Tests used:
Format in all cases: in vivo
[1] = test system: barnyardgrass (Echinochloa crus-galli); experiment: Test B pre-/postemergence plant response; conditions: for pest or weed control at 1000 g/ha: Echinochloa crus-galli, 240 h, 1000 g ai/ha, read-out: Plant response rating, Barnyardgrass
Outline: (§1)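 Ratings reflect visual injury versus untreated controls, from 0 for no effect to 100 for complete control, assessed roughly 10 days after treatment. Formulation: non-phytotoxic solvent mix with surfactant; pre- and postemergence sprays on plants grown in loam soil and sand.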

corn (Zea mays) = experiment: Test B pre-/postemergence plant response; conditions: for Corn plant response rating (crop injury, 0 = no effect, 100 = complete kill) at 1000 g/ha: Zea mays, 240 h, 1000 g ai/ha
Outline: as §1

[2] = test system: giant foxtail (Setaria faberii); experiment: Test B pre-/postemergence plant response; conditions: for pest or weed control at 1000 g/ha: Setaria faberi, 240 h, 1000 g ai/ha, read-out: Plant response rating, Foxtail, Giant
Outline: as §1

[3] = test system: large (Lg) crabgrass (Digitaria sanguinalis); experiment: Test B pre-/postemergence plant response; conditions: for pest or weed control at 1000 g/ha: Digitaria sanguinalis, 240 h, 1000 g ai/ha, read-out: Plant response rating, Crabgrass, Large
Outline: as §1

[4] = test system: morningglory (Ipomoea spp.); experiment: Test B pre-/postemergence plant response; conditions: for pest or weed control at 1000 g/ha: Ipomoea, 240 h, 1000 g ai/ha, read-out: Plant response rating, Morningglory
Outline: as §1

[5] = test system: pigweed (Amaranthus retroflexus); experiment: Test B pre-/postemergence plant response; conditions: for pest or weed control at 1000 g/ha: Amaranthus retroflexus, 240 h, 1000 g ai/ha, read-out: Plant response rating, Pigweed
Outline: as §1

[6] = test system: velvetleaf (Abutilon theophrasti); experiment: Test B pre-/postemergence plant response; conditions: for pest or weed control at 1000 g/ha: Abutilon theophrasti, 240 h, 1000 g ai/ha, read-out: Plant response rating, Velvetleaf
Outline: as §1

[7] = test system: wheat (Triticum aestivum); experiment: Test B pre-/postemergence plant response; conditions: for plant injury at 1000 g/ha: Triticum aestivum, 240 h, 1000 g ai/ha, read-out: Plant response rating, Wheat
Outline: as §1

[8] = test system: barnyardgrass (Echinochloa crus-galli); experiment: Test C flooded paddy test plant response; conditions: Flood, 250 g ai/ha, scale of 0 to 100 where 0 is no effect and 100 is complete control, 13 to 15 days
Outline: (§2)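 2-leaf plants; flood 3 cm, cpd into paddy water; greenhouse 13–15 d; visual score vs untreated, 0 = no effect, 100 = complete control; dash = no result.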

[9] = test system: ducksalad (Heteranthera limosa); experiment: Test C flooded paddy test plant response; conditions: Flood, 250 g ai/ha, scale of 0 to 100 where 0 is no effect and 100 is complete control, 13 to 15 days
Outline: as §2

rice (Oryza sativa) = experiment: Test C flooded paddy test plant response; conditions: Flood, 250 g ai/ha, scale of 0 to 100 where 0 is no effect and 100 is complete control, 13 to 15 days
Outline: as §2

[10] = test system: small-flower umbrella sedge (Cyperus difformis); experiment: Test C flooded paddy test plant response; conditions: Flood, 250 g ai/ha, scale of 0 to 100 where 0 is no effect and 100 is complete control, 13 to 15 days
Outline: as §2

[11] = 125 g ai/ha, postemergence, 0 to 100 scale, 0 no effect, 100 complete control
[12] = Postemergence, 500 g ai/ha, 0 to 100 scale (0 no effect, 100 complete control)
[13] = Preemergence, 125 g ai/ha, 0 to 100 scale where 0 is no effect and 100 is complete control
[14] = Preemergence, 500 g ai/ha, 0 to 100 scale (0 no effect, 100 complete control)
[15] = post-emergence, Postemergence, 0 to 100 scale (0 no effect, 100 complete control)
[16] = pre-emergence, Preemergence, 0 to 100 scale (0 no effect, 100 complete control)

In the case of Cn1cc(-c2ccccc2Oc2ncc(Cl)cn2)cn1 [Compound 11], the “Plant response rating, Barnyardgrass” value [1, 11] is reported as 0, the “Plant response rating, Barnyardgrass” value [1, 12] is reported as 10 and the “Plant response rating, Barnyardgrass” value [1, 13] is reported as 0. For the same molecule, the “Plant response rating, Barnyardgrass” value [1, 14] was 0, the “Plant response rating, Corn” value (corn (Zea mays); [11]) was 0 and the “Plant response rating, Corn” value (corn (Zea mays); [12]) was 0. The “Plant response rating, Corn” value (corn (Zea mays); [13]) was 0, the “Plant response rating, Corn” value (corn (Zea mays); [14]) was 0 and the “Plant response rating, Foxtail, Giant” value [2, 11] was 0. For the same molecule, the “Plant response rating, Foxtail, Giant” value [2, 12] was 0, the “Plant response rating, Foxtail, Giant” value [2, 13] was 0 and the “Plant response rating, Foxtail, Giant” value [2, 14] was 0. The “Plant response rating, Crabgrass, Large” value [3, 11] was 10, the “Plant response rating, Crabgrass, Large” value [3, 12] was 10 and the “Plant response rating, Crabgrass, Large” value [3, 13] was 0. The “Plant response rating, Crabgrass, Large” value [3, 14] was 0, the “Plant response rating, Morningglory” value [4, 11] was 10 and the “Plant response rating, Morningglory” value [4, 12] was 20. For the same molecule, the “Plant response rating, Morningglory” value [4, 13] was 0, the “Plant response rating, Pigweed” value [5, 11] was 10 and the “Plant response rating, Pigweed” value [5, 12] was 20. For the same molecule, the “Plant response rating, Pigweed” value [5, 13] was 0, the “Plant response rating, Pigweed” value [5, 14] was 30 and the “Plant response rating, Velvetleaf” value [6, 11] was 10. For the same molecule, the “Plant response rating, Velvetleaf” value [6, 12] was 20, the “Plant response rating, Velvetleaf” value [6, 13] was 10 and the “Plant response rating, Velvetleaf” value [6, 14] was 10. For the same molecule, the “Plant response rating, Wheat” value [7, 11] was 0, the “Plant response rating, Wheat” value [7, 12] was 0 and the “Plant response rating, Wheat” value [7, 13] was 0. For the same molecule, the “Plant response rating, Wheat” value [7, 14] was 0, the “Barnyardgrass plant response rating” value [8] was 0 and the “Ducksalad plant response rating” value [9] was 0. For the same molecule, the “Rice plant response rating” value (rice (Oryza sativa)) was 0 and the “Sedge, Umbrella plant response rating” value [10] was 0.

Clc1cnc(Oc2ccccc2-c2cc(Br)no2)nc1 [Compound 12, 2-[2-(3-bromo-5-isoxazolyl)phenoxy]-5-chloropyrimidine] was tested, and the pest or weed control at 1000 g/ha [1, 15] was 40%, the pest or weed control at 1000 g/ha [1, 16] was 20% and the Corn plant response rating (crop injury, 0 = no effect, 100 = complete kill) at 1000 g/ha (corn (Zea mays); [15]) was 0%. For the same molecule, the Corn plant response rating (crop injury, 0 = no effect, 100 = complete kill) at 1000 g/ha (corn (Zea mays); [16]) was 0%, the pest or weed control at 1000 g/ha [2, 15] was 40% and the pest or weed control at 1000 g/ha [2, 16] was 90%. It also gave a pest or weed control at 1000 g/ha [3, 15] of 30%, a pest or weed control at 1000 g/ha [3, 16] of 80% and a pest or weed control at 1000 g/ha [4, 15] of 30%. For the same molecule, the pest or weed control at 1000 g/ha [4, 16] was 0%, the pest or weed control at 1000 g/ha [5, 15] was 100% and the pest or weed control at 1000 g/ha [5, 16] was 90%. For the same molecule, the pest or weed control at 1000 g/ha [6, 15] was 90%, the pest or weed control at 1000 g/ha [6, 16] was 70% and the plant injury at 1000 g/ha [7, 15] was 10%. The plant injury at 1000 g/ha [7, 16] was 0%, the pest or weed control at 250 g/ha ([8]; Echinochloa crus-galli, read-out: Barnyardgrass plant response rating) was 10% and the pest or weed control at 250 g/ha ([9]; Heteranthera limosa, read-out: Ducksalad plant response rating) was 40%. It also gave a plant injury at 250 g/ha (rice (Oryza sativa); Oryza sativa, read-out: Rice plant response rating) of 0% and a pest or weed control at 250 g/ha ([10]; Cyperus difformis, read-out: Sedge, Umbrella plant response rating) of 0%.

For FC(F)(F)c1cnc(Oc2ccccc2-c2cncs2)nc1 [Compound 13], the “Plant response rating, Barnyardgrass” value [1, 11] was 0, the “Plant response rating, Barnyardgrass” value [1, 12] was 0 and the “Plant response rating, Barnyardgrass” value [1, 13] was 0. For the same molecule, the “Plant response rating, Barnyardgrass” value [1, 14] was 0, the “Plant response rating, Corn” value (corn (Zea mays); [11]) was 0 and the “Plant response rating, Corn” value (corn (Zea mays); [12]) was 10. For the same molecule, the “Plant response rating, Corn” value (corn (Zea mays); [13]) was 0, the “Plant response rating, Corn” value (corn (Zea mays); [14]) was 0 and the “Plant response rating, Foxtail, Giant” value [2, 11] was 0. For the same molecule, the “Plant response rating, Foxtail, Giant” value [2, 12] was 0, the “Plant response rating, Foxtail, Giant” value [2, 13] was 0 and the “Plant response rating, Foxtail, Giant” value [2, 14] was 10. The “Plant response rating, Crabgrass, Large” value [3, 11] was 0, the “Plant response rating, Crabgrass, Large” value [3, 12] was 10 and the “Plant response rating, Crabgrass, Large” value [3, 13] was 0. The “Plant response rating, Crabgrass, Large” value [3, 14] was 10, the “Plant response rating, Morningglory” value [4, 11] was 0 and the “Plant response rating, Morningglory” value [4, 12] was 10. The “Plant response rating, Morningglory” value [4, 13] was 0, the “Plant response rating, Morningglory” value [4, 14] was 0 and the “Plant response rating, Pigweed” value [5, 11] was 0. The “Plant response rating, Pigweed” value [5, 12] was 40, the “Plant response rating, Pigweed” value [5, 13] was 0 and the “Plant response rating, Pigweed” value [5, 14] was 80. For the same molecule, the “Plant response rating, Velvetleaf” value [6, 11] was 30, the “Plant response rating, Velvetleaf” value [6, 12] was 60 and the “Plant response rating, Velvetleaf” value [6, 13] was 0. For the same molecule, the “Plant response rating, Velvetleaf” value [6, 14] was 10, the “Plant response rating, Wheat” value [7, 11] was 0 and the “Plant response rating, Wheat” value [7, 12] was 0. The “Plant response rating, Wheat” value [7, 13] was 0, the “Plant response rating, Wheat” value [7, 14] was 0 and the “Barnyardgrass plant response rating” value [8] was 0. The “Ducksalad plant response rating” value [9] was 40, the “Rice plant response rating” value (rice (Oryza sativa)) was 0 and the “Sedge, Umbrella plant response rating” value [10] was 0.

In the case of FC(F)(F)c1cnc(Oc2ccccc2-c2cscn2)nc1 [Compound 14], the “Plant response rating, Barnyardgrass” value [1, 11] is reported as 0, the “Plant response rating, Barnyardgrass” value [1, 12] is reported as 0 and the “Plant response rating, Barnyardgrass” value [1, 13] is reported as 0. For the same molecule, the “Plant response rating, Barnyardgrass” value [1, 14] was 0, the “Plant response rating, Corn” value (corn (Zea mays); [11]) was 0 and the “Plant response rating, Corn” value (corn (Zea mays); [12]) was 30. For the same molecule, the “Plant response rating, Corn” value (corn (Zea mays); [13]) was 0, the “Plant response rating, Corn” value (corn (Zea mays); [14]) was 0 and the “Plant response rating, Foxtail, Giant” value [2, 11] was 0. For the same molecule, the “Plant response rating, Foxtail, Giant” value [2, 12] was 10, the “Plant response rating, Foxtail, Giant” value [2, 13] was 0 and the “Plant response rating, Foxtail, Giant” value [2, 14] was 30. The “Plant response rating, Crabgrass, Large” value [3, 11] was 0, the “Plant response rating, Crabgrass, Large” value [3, 12] was 10 and the “Plant response rating, Crabgrass, Large” value [3, 13] was 0. The “Plant response rating, Crabgrass, Large” value [3, 14] was 20, the “Plant response rating, Morningglory” value [4, 11] was 0 and the “Plant response rating, Morningglory” value [4, 12] was 0. The “Plant response rating, Morningglory” value [4, 13] was 0, the “Plant response rating, Morningglory” value [4, 14] was 0 and the “Plant response rating, Pigweed” value [5, 11] was 0. The “Plant response rating, Pigweed” value [5, 12] was 50, the “Plant response rating, Pigweed” value [5, 13] was 0 and the “Plant response rating, Pigweed” value [5, 14] was 100. The “Plant response rating, Velvetleaf” value [6, 11] was 20, the “Plant response rating, Velvetleaf” value [6, 12] was 30 and the “Plant response rating, Velvetleaf” value [6, 13] was 0. For the same molecule, the “Plant response rating, Velvetleaf” value [6, 14] was 20, the “Plant response rating, Wheat” value [7, 11] was 0 and the “Plant response rating, Wheat” value [7, 12] was 0. The “Plant response rating, Wheat” value [7, 13] was 0, the “Plant response rating, Wheat” value [7, 14] was 0 and the “Barnyardgrass plant response rating” value [8] was 0. For the same molecule, the “Ducksalad plant response rating” value [9] was 40, the “Rice plant response rating” value (rice (Oryza sativa)) was 0 and the “Sedge, Umbrella plant response rating” value [10] was 0.

Source: patent publication US10131652B2, “Pyrimidinyloxy benzene derivatives as herbicides” (E. I. DU PONT DE NEMOURS AND COMPANY, priority 2014, dated 2018)
